In patent publication US11542274B1, “Therapeutic compounds and methods of use thereof” (AGENCY FOR SCIENCE, TECHNOLOGY AND RESEARCH (A*STAR), priority 2019, dated 2023):
Entries after “also recorded” stand apart in the source; their conditions may differ.

How the values were obtained:
truncated CRBN (319-427) = truncated CRBN (319-427) (Homo sapiens (Human), UniProt Q96SW2); test: Fluorescence binding assay (fluorescence quenching), affinity to E3-CEREBLON (CRBN)-ubiquitin ligase; details: ubiquitination moiety, pH 6.5
Sequence of truncated CRBN (319-427) (Q96SW2 319-427): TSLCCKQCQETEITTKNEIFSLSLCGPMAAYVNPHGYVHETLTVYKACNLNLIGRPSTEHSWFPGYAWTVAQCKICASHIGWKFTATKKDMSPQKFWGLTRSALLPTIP

[1] = molecular target: CRBN (truncated, residues 319-427) (Homo sapiens (Human), UniProt Q96SW2); test: NMR binding experiments (1H-15N HSQC titration); details: 15N-labeled CRBN, ligand to CRBN ratios 0, 0.5, 1.0 and 1.5, 25° C.
Sequence of CRBN (truncated, residues 319-427) (Q96SW2 319-427): as above
Procedure: All the NMR experiments were carried out on a Bruker magnet with proton frequency of 600 MHz or 700 MHz equipped with a cryo-probe. The experiments were performed at 25° C. The ^1H-^15N HSQC spectrum was collected using a standard pulse from the pulse library (Topspin version 2.1). To test whether a developed CRBN binder interacts with CRBN, titration of the compound to ^15N-labeled CRBN was carried out. The ^1H-^15N HSQC spectra of mixtures in which ligand to CRBN ratios are 0, 0.5, 1.0 and 1.5 were collected and compared. The data were collected using Topspin (ver 2.1) provided with equipment. The data were processed with topspin (ver 2.1), NMRPipe (Delaglio et al. 1995) and visualized using NMRView (Johnson 2004). The truncated CRBN: residues 319-427 was used in the NMR experiments.

[2] = test system: RAMOS cells (Burkitt's lymphoma cell line); test: Anti-proliferation assay (CellTiter-Glo); assay type: cell-based; details: 3 days
Procedure: In cell growth experiments, cells were seeded in 96-well cell culture plates at a density of 3000 of RAMOS cells/well in 100 μL of culture medium. 100 μL of the diluted solution containing the tested compound was added to the appropriate wells of the cell plate. After addition of the tested compound, the cells were incubated at 37° C. in an atmosphere of 5% CO2 for 3 days. CellTiter-Glo (CTG) reagent from the Promega CellTiter-Glo Luminescent Cell Viability Assay kit (#G7572) was added into an OptiPlate 96 (Perkin Elmer, White, Opaque, #6005299) in the dark, incubated for at least 2 hrs, and luminescence signal was read using Tecan Safire II Multi-Mode Plate Reader. The GI50 was calculated by nonlinear regression analysis using GraphPad Prism5 software.
GI50 is the concentration for 50% of maximal inhibition of cell proliferation.

BRD4 = BRD4 (Homo sapiens (Human), UniProt O60885); test: Western blot analysis of BRD4 degradation in RAMOS cells; assay type: cell-based
Procedure: Ramos (ATCC, CRL-1596) cells cultured in Roswell Park Memorial Institute (RPMI) 1640 Medium supplemented with 10% Fetal bovine serum and 1% Penicillin-streptomycin at 37° C. in humidified atmosphere with 5% CO2. In 6-well plate, 1.2 million cells were treated with indicated PROTAC compounds at 0.1% final concentration (v/v) of DMSO for desired duration of time. Pelleted cells were lysed in RIPA buffer (1% Nonidet P-40, 0.5% sodium deoxycholate, 0.1% SDS in 1× Tris-buffered saline) supplemented with protease inhibitor cocktail, 0.5 U/μL Benzonase (Novagen) and 1 mM MgCl2. Lysates were incubated on ice for 10 minutes followed by 15 minutes' centrifugation at 15000×g at 4° C. Supernatant was collected and subjected to Bradford protein quantification assay. Heat-denatured lysates (50 μg total protein) were loaded on NuPAGE 3-8% Tris-Acetate SDS protein gels. Proteins were transferred to PVDF membrane using iBlot 2 Dry Blotting Device (Thermo Fisher Scientific) at 20V for 13 minutes. Membranes were processed using iBind Flex Western Device (Thermo Fisher Scientific) by following the manufacturer's guideline. Membranes were probed with anti-BRD4 (Cell Signaling, Cat. #13440S), anti-c-Myc (Cell Signaling, Cat. #5605S), anti-β-actin (Proteintech, Cat. #66009-1-lg) antibodies, and developed with anti-Rabbit IgG, HRP-linked F(ab′)2 fragment (from donkey) (GE Life Sciences, Cat. #NA-9340) or anti-mouse IgG, AP-linked Antibody (Cell Signaling Technologies, Cat. #7056S) secondary antibodies. Membranes were incubated with Amersham ECL Select Western Blotting Detection Reagent (GE life sciences, Cat. #RPN2235) and Immun-Star™ AP Chemiluminescence Kits (Biorad, Cat. #1705018), visualized under FluorChem system (Protein Simple).
The protocol was run at 4 different inhibitor concentrations: 5 μM, 1 μM, 0.3 μM, 0.1 μM, using neat DMSO as the negative control. The % BRD4 degradation in western blot analysis is graded as follows: • K: Protein degradation >70% • L: 40%≤protein degradation<70% • M: protein degradation<40%

For `Nc1cc(-c2ccc3c(c2)NC(=O)C3)ccn1` [Compound 011, 6-(2-aminopyridin-4-yl)indolin-2-one], the IC50 (truncated CRBN (319-427)) was 100 to 300 µM and the “binding to CRBN in HSQC titration experiments” value (“binding to CRBN” below) [1] was “bind to protein CRBN; also recorded: clear binding”.
With `Nc1cnccc1-c1ccc2c(c1)NC(=O)C2` [Compound 012, 6-(3-aminopyridin-4-yl)indolin-2-one] the IC50 (truncated CRBN (319-427)) was > 300 µM and the “binding to CRBN” value [1] was “bind to protein CRBN; also recorded: clear binding”.
In the case of `Nc1ccc(-c2ccc3c(c2)NC(=O)C3)cn1` [Compound 013, 6-(6-aminopyridin-3-yl)indolin-2-one], the IC50 (truncated CRBN (319-427)) is reported as > 300 µM and the “binding to CRBN” value [1] is reported as “bind to protein CRBN; also recorded: clear binding”.
In the case of `Nc1cc(-c2ccc3c(c2)CC(=O)N3)ccn1` [Compound 040, 5-(2-aminopyridin-4-yl)indolin-2-one], the IC50 (truncated CRBN (319-427)) is reported as 100 to 300 µM and the “binding to CRBN” value [1] is reported as “bind to protein CRBN; also recorded: clear binding”.
`Nc1ncccc1-c1ccc2c(c1)CC(=O)N2` [Compound 045, 5-(2-aminopyridin-3-yl)indolin-2-one] was tested, and the IC50 (truncated CRBN (319-427)) was 100 to 300 µM and the “binding to CRBN” value [1] was “bind to protein CRBN; also recorded: clear binding”.
Work on `Cc1sc2c(c1C)C(c1ccc(Cl)cc1)=N[C@@H](CC(=O)NCCOCCOc1ccc(-c3ccc4c(c3)CC(=O)N4)cn1)c1nnc(C)n1-2` [Compound 132, (S)-2-(4-(4-chlorophenyl)-2,3,9-trimethyl-6H-thieno[3,2-f][1,2,4]triazolo[4,3-a][1,4]diazepin-6-yl)-N-(2-(2-((5-(2-oxoindolin-5-yl)pyridin-2-yl)oxy)ethoxy)ethyl)acetamide] yielded a GI50 ([2]; Homo sapiens, 72 h) of 0.001 to 0.1 µM.
`Cc1sc2c(c1C)C(c1ccc(Cl)cc1)=N[C@@H](CC(=O)NCCOCCNc1ncc(-c3ccc4c(c3)CC(=O)N4)cn1)c1nnc(C)n1-2` [Compound 133, (S)-2-(4-(4-chlorophenyl)-2,3,9-trimethyl-6H-thieno[3,2-f][1,2,4]triazolo[4,3-a][1,4]diazepin-6-yl)-N-(2-(2-((5-(2-oxoindolin-5-yl)pyrimidin-2-yl)amino)ethoxy)ethyl)acetamide] showed a GI50 ([2]; Homo sapiens, 72 h) of 0.001 to 0.1 µM.
`Cc1sc2c(c1C)C(c1ccc(Cl)cc1)=N[C@@H](CC(=O)NCCC1CCN(c3ccc(-c4ccc5c(c4)CC(=O)N5)cn3)CC1)c1nnc(C)n1-2` [Compound 134, (S)-2-(4-(4-chlorophenyl)-2,3,9-trimethyl-6H-thieno[3,2-f][1,2,4]triazolo[4,3-a][1,4]diazepin-6-yl)-N-(2-(1-(5-(2-oxoindolin-5-yl)pyridin-2-yl)piperidin-4-yl)ethyl)acetamide] gave a GI50 ([2]; Homo sapiens, 72 h) of 0.001 to 0.1 µM.
Molecule `Cc1sc2c(c1C)C(c1ccc(Cl)cc1)=N[C@@H](CC(=O)NCCOCCNc1ncccc1-c1ccc3c(c1)CC(=O)N3)c1nnc(C)n1-2` [Compound 135, (S)-2-(4-(4-chlorophenyl)-2,3,9-trimethyl-6H-thieno[3,2-f][1,2,4]triazolo[4,3-a][1,4]diazepin-6-yl)-N-(2-(2-((3-(2-oxoindolin-5-yl)pyridin-2-yl)amino)ethoxy)ethyl)acetamide] has a GI50 ([2]; Homo sapiens, 72 h) of 0.001 to 0.1 µM.
With `Cc1sc2c(c1C)C(c1ccc(Cl)cc1)=N[C@@H](CC(=O)NC1CCN(c3ncccc3-c3ccc4c(c3)CC(=O)N4)CC1)c1nnc(C)n1-2` [Compound 136, (S)-2-(4-(4-chlorophenyl)-2,3,9-trimethyl-6H-thieno[3,2-f][1,2,4]triazolo[4,3-a][1,4]diazepin-6-yl)-N-(1-(3-(2-oxoindolin-5-yl)pyridin-2-yl)piperidin-4-yl)acetamide] the GI50 ([2]; Homo sapiens, 72 h) was 0.001 to 0.1 µM.
In the case of `Cc1sc2c(c1C)C(c1ccc(Cl)cc1)=N[C@@H](CC(=O)N1CCC3(CCN(c4ncccc4-c4ccc5c(c4)CC(=O)N5)C3)C1)c1nnc(C)n1-2` (stereo partly shown) [Compound 137], the GI50 ([2]; Homo sapiens, 72 h) is reported as 0.1 to 1 µM.
In the case of `Cc1sc2c(c1C)C(c1ccc(Cl)cc1)=N[C@@H](CC(=O)NC1CC3(C1)CC(Nc1ncccc1-c1ccc4c(c1)CC(=O)N4)C3)c1nnc(C)n1-2` (stereo partly drawn) [Compound 138, (S)-2-(4-(4-chlorophenyl)-2,3,9-trimethyl-6H-thieno[3,2-f][1,2,4]triazolo[4,3-a][1,4]diazepin-6-yl)-N-(6-((3-(2-oxoindolin-5-yl)pyridin-2-yl)amino)spiro[3.3]heptan-2-yl)acetamide], the GI50 ([2]; Homo sapiens, 72 h) is reported as 0.001 to 0.1 µM.
Molecule `Cc1sc2c(c1C)C(c1ccc(Cl)cc1)=N[C@@H](CC(=O)NCCCCNc1ncccc1-c1ccc3c(c1)CC(=O)N3)c1nnc(C)n1-2` [Compound 139, (S)-2-(4-(4-chlorophenyl)-2,3,9-trimethyl-6H-thieno[3,2-f][1,2,4]triazolo[4,3-a][1,4]diazepin-6-yl)-N-(4-((3-(2-oxoindolin-5-yl)pyridin-2-yl)amino)butyl)acetamide] has a GI50 ([2]; Homo sapiens, 72 h) of 0.1 to 1 µM.
Work on `Cc1sc2c(c1C)C(c1ccc(Cl)cc1)=N[C@@H](CC(=O)Nc1ccc(OCCOCCNc3ncccc3-c3ccc4c(c3)CC(=O)N4)cc1)c1nnc(C)n1-2` [Compound 140, (S)-2-(4-(4-chlorophenyl)-2,3,9-trimethyl-6H-thieno[3,2-f][1,2,4]triazolo[4,3-a][1,4]diazepin-6-yl)-N-(4-(2-(2-((3-(2-oxoindolin-5-yl)pyridin-2-yl)amino)ethoxy)ethoxy)phenyl)acetamide] yielded a GI50 ([2]; Homo sapiens, 72 h) of 0.1 to 1 µM.
With `Cc1cc(NCCOCCOCCOCCOc2ccc(NC(=O)C[C@@H]3N=C(c4ccc(Cl)cc4)c4c(sc(C)c4C)-n4c(C)nnc43)cc2)ncc1-c1ccc2c(c1)CC(=O)N2` [Compound 148, (S)-2-(4-(4-chlorophenyl)-2,3,9-trimethyl-6H-thieno[3,2-f][1,2,4]triazolo[4,3-a][1,4]diazepin-6-yl)-N-(4-(2-(2-(2-(2-((4-methyl-5-(2-oxoindolin-5-yl)pyridin-2-yl)amino)ethoxy)ethoxy)ethoxy)ethoxy)phenyl)acetamide] the “% BRD4 degradation” value (BRD4; 0.1 μM) was “M (protein degradation<40%)”, the “% BRD4 degradation” value (BRD4; 0.3 μM) was “L (40%≤protein degradation<70%)” and the “% BRD4 degradation” value (BRD4; 1 μM) was “L (40%≤protein degradation<70%)”. For the same molecule, the “% BRD4 degradation” value (BRD4; 5 μM) was “K (Protein degradation >70%)”.
For `Cc1cc(NCCOCCOCCOCCOc2ccc(NC(=O)C[C@@H]3N=C(c4ccc(Cl)cc4)c4c(sc(C)c4C)-n4c(C)nnc43)cc2)ncc1-c1cnc2c(c1)CC(=O)N2` [Compound 156, (S)-2-(4-(4-chlorophenyl)-2,3,9-trimethyl-6H-thieno[3,2-f][1,2,4]triazolo[4,3-a][1,4]diazepin-6-yl)-N-(4-(2-(2-(2-(2-((4-methyl-5-(2-oxo-2,3-dihydro-1H-pyrrolo[2,3-b]pyridin-5-yl)pyridin-2-yl)amino)ethoxy)ethoxy)ethoxy)ethoxy)phenyl)acetamide], the “% BRD4 degradation” value (BRD4; 0.1 μM) was “M (protein degradation<40%)”, the “% BRD4 degradation” value (BRD4; 0.3 μM) was “M (protein degradation<40%)” and the “% BRD4 degradation” value (BRD4; 1 μM) was “L (40%≤protein degradation<70%)”. For the same molecule, the “% BRD4 degradation” value (BRD4; 5 μM) was “K (Protein degradation >70%)”.
With “(S)-2-(4-(4-chlorophenyl)-2,3,9-trimethyl-6H-thieno[3,2-f][1,2,4]triazolo[4,3-a][1,4]diazepin-6-yl)-N-(2-oxo-2-(4-(5-(2-oxoindolin-5-yl)pyridin-2-yl)piperazin-1-yl)ethyl)acetamide [Compound 122]” the GI50 [2] was 0.001 to 0.1 µM.
